The procedure of data set [1]:
This was an adaptive Phase Ib/2 trial design. It was a randomized, double-blind, placebo-controlled, multiple ascending dose study assessing efficacy, pharmacokinetics, safety and tolerability of dexmedetomidine hydrochloride dosing in adult (65 years old and older) males and females with acute agitation associated with dementia.
The drug film was retained in the sublingual cavity until dissolved. Participants were also evaluated for local irritation around the area where the film was placed. Efficacy and safety assessments were conducted periodically before and after dosing. The next cohort was dosed after completing accrual of most prior panels, in accord with regular ongoing periodic safety and PK review as eligible subjects were assigned, dosed, and data became available.
Blood samples (4 mL) were collected at 0.5, 1, 2, 4, 8- and 24-hours post-dose per Schedule of Events (Table 9A).
All pharmacokinetic parameters were calculated using non-compartmental analysis using WinNonlin. Actual sampling times were used in all pharmacokinetic analyses. […] Other PK analyses might be performed as appropriate.
Plasma samples were collected at 0.5, 1, 2, (2.5 in re-dose subjects), 4 and 8 hr.

Data set [2] relates to opioid withdrawal symptoms. Here is the method: (§1) • COWS and SOWS scores during Days 6-12. COWS and SOWS scores on Days 6-12 were analyzed using a mixed-effects, repeated-measures model. […] Kaplan-Meier estimates were used to generate survival curves for each treatment group. […] Differences in mean agitation and sedation were compared between the treatment groups using the same mixed-effects, repeated-measures model described above.

For another data set, the system named is opioid withdrawal. Here is the method: as §1
Kaplan-Meier estimates were also used to generate survival curves over time in each treatment group. Logistic regression model was used to compare the dexmedetomidine hydrochloride oromucosal film and placebo groups on the numbers of subjects dropping out after opioid discontinuation.

Data set [3] has as its system elderly dementia patients.
Experimental: AEs, clinical laboratory tests, 12-lead ECG, Johns Hopkins Fall Risk Assessment score, and vital signs were monitored, and all observed and volunteered AEs were recorded. Blood pressure, heart rate and ECG were completed per schedule of assessments. Any abnormal clinically significant (investigator determined) vital sign measurement, clinical laboratory test, physical examination finding, or ECG parameter were repeated, until the value returned to baseline (or within normal limits) or the investigator deemed the abnormality to be of no clinical significance. Orthostatic assessments followed the CDC guidelines for the elderly (e.g. blood pressure upon standing for 1, 3 and 5 minutes). Safety and tolerability assessments were continued until the morning of Day 2 and Day 3 and were repeated on Day 7=2 days.
Safety was assessed during the study by the monitoring and recording of AEs, clinical laboratory test results (hematology, biochemistry, and urinalysis), vital sign measurements (systolic and diastolic blood pressures, heart rate measured as pulse, respiratory rate, and temperature), ECG, and physical examination findings.
Adverse events (AEs) were characterized by type, severity, seriousness, and relationship to treatment. Adverse events were coded by preferred term and system organ class using MedDRA version 20.0.
The procedure of data set [4]: Blood samples (4 ml) were collected for pharmacokinetic analysis on inpatient Study Days 6 and 12 at 0, 2, 6, and 12 hours after the first dose of dexmedetomidine hydrochloride oromucosal film on Study Days 6 and 12.
Plasma concentration data for dexmedetomidine were analyzed by a popPK approach and reported separately. The plasma concentration data from this study were combined with PK data from other studies to develop the population PK model. The model was used to estimate exposure measures in subjects in this study through a modeling and simulation approach. • Interim data: The demographic data and baseline characteristics are given in Table 15C.
This is another data set of the same source.

In data set [5] the test system is subjects undergoing opioid withdrawal. The following applies: Fishman et al. 2019, cited from earlier work.

The structures appear in SMILES notation. Like-named read-outs stand apart in the source and are kept apart here.

Regarding `Cc1cccc([C@H](C)c2cnc[nH]2)c1C` [dexmedetomidine, (+) 4-(S)-[1-(2,3-dimethylphenyl)ethyl]-1H-imidazole], the “exposure levels in elderly dementia patients vs schizophrenia patients” value in data set [1] (Table 9E) is “higher exposure levels”. Also, in data set [1] (same dose), the “AUC higher in dementia patients than in schizophrenia (and bipolar disorder) patients” value is given as “about 55%” and the “Cmax higher in dementia patients than in schizophrenia (and bipolar disorder) patients” value is recorded as “about 38%”. In addition, in data set [2] (Day 7, about 240 μg twice daily), the “subjective rating of insomnia on SOWS scale” value is “significant reduction”. Also, the “ratings of anxiety or irritability on COWS scale” value in data set [2] (Day 8, about 240 μg twice daily) is “significant reduction”. The retention rate result in the data set with opioid withdrawal (Day 6, 120 μg dose) is given as “at least 40%”. For the same compound, the retention rate entry in the data set with opioid withdrawal (Day 6, 180 μg dose) is recorded as “at least 50%”. In addition, the “consequences of doses higher than about 90 μg” value in data set [3] is on record as “negative consequences”. Besides, in data set [4] (30 μg to 240 μg, days 6 and 12), the “plasma concentration as dose increased” value is listed as “dose dependent increases”. In data set [4] (all doses), the “mean plasma concentrations between 2-hour and 12-hour timepoints” value is reported as “declined over time”.
On to `CC(Oc1c(Cl)cccc1Cl)C1=NCCN1` (stereo not drawn) [lofexidine], for which, in data set [5] (2.16 mg (N = 229)), the “Adverse Event Bradycardia” value is recorded as 54 (24) n (%), the “Adverse Event Dizziness” value is given as 44 (19) n (%), the “Adverse Event Orthostatic hypotension” value is on record as 67 (29) n (%) and the “Adverse Event Somnolence” value is reported as 25 (10.9) n (%). For the same compound, in data set [5] (2.88 mg (N = 229)), the “Adverse Event Bradycardia” value is 70 (32) n (%), the “Adverse Event Dizziness” value is 51 (23.0) n (%), the “Adverse Event Orthostatic hypotension” value was 94 (42) n (%) and the “Adverse Event Somnolence” value is recorded as 29 (13.1) n (%).

The values above are taken from patent US20250302808A1, “DEXMEDETOMIDINE TREATMENT REGIMENS” (BioXcel Therapeutics, Inc., priority 2021, published 2025).
